Patent US9821008B2, “Inhibitors of ERCC1-XPF and methods of using the same” (The University of Toledo, priority 2013, dated 2017)
pIC50: −log10 of the molar value. Like-named read-outs stand apart in the source and are kept apart here.

How the values were obtained:
[1] = tested on: 2008/C13*5.25 (resistant) ovarian cancer cell line; assay: colony survival after ERCC1-XPF siRNA and cisplatin treatment; format: cell-based; conditions: control siRNA; 2008/C13*5.25 vs 2008
From the text: FIG. 1: Colony survival in matched ovarian cancer cell lines. 2008 (sensitive, squares) and 2008/C13*5.25 (resistant, circles) ovarian cancer cell lines were transfected with control or ERCC1-XPF siRNA and subjected to cisplatin treatment. IC50 values are indicated.
In order to assess whether ERCC1-XPF influences cisplatin resistance in ovarian cancer cell lines, a matched set of parental sensitive (2008s) and daughter resistant cell lines (2008/C13*5.25) were obtained. These are well characterized cell lines for assessing cisplatin resistance and effects in ovarian cancer.
Following greater than 90% ERCC1-XPF knockdown (data not shown), the resistant daughter cell line has a nearly 5-fold change in cisplatin sensitivity, making the cells as sensitive as the parental sensitive cell line (compare open circles with filled squares).

ERCC1-XPF = molecular target: T1, ERCC1-XPF (Homo sapiens, UniProt P07992+Q92889); assay: radiolabeled DNA incision assay (radiometric inhibition assay); format: biochemical; conditions: read-out: 50% inhibition in radiometric inhibition assay
T1 sequence (Q92889 1-916): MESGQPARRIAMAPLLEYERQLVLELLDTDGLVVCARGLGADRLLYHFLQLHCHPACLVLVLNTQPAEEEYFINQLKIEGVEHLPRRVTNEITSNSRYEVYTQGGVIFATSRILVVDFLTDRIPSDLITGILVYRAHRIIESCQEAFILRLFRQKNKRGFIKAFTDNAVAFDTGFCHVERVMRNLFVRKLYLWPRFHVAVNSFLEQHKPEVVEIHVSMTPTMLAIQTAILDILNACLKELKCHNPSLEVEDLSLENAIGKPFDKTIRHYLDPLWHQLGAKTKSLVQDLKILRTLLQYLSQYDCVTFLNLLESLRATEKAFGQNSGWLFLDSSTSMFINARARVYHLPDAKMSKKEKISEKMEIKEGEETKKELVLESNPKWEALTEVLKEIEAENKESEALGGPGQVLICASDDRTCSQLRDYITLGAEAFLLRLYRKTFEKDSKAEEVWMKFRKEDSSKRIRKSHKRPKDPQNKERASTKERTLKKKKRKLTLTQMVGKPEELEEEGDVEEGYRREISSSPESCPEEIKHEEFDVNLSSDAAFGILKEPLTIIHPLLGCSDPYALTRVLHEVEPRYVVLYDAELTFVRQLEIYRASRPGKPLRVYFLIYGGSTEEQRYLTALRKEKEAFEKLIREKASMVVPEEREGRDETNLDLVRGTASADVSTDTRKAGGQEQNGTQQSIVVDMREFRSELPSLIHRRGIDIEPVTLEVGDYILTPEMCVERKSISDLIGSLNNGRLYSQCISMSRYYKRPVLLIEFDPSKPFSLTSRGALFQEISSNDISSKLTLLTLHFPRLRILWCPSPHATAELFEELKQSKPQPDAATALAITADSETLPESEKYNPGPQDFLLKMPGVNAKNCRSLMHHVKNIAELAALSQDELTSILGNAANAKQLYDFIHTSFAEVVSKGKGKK
T1 sequence (P07992 1-297): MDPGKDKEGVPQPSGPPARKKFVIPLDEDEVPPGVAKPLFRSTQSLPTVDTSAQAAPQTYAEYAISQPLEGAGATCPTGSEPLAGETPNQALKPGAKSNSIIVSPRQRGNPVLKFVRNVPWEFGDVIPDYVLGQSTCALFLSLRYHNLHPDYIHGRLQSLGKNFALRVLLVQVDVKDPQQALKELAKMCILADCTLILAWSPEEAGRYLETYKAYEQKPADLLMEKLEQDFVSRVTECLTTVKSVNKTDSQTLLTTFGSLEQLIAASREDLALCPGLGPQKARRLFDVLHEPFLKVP
Method: (§1) For at least one reason, the lead compound was selected based on having nanomolar potency in the fluorescence assay (FIG. 2) and having the best response in enhancing cisplatin efficacy in cell culture models. Titration of lead compound in the ERCC1-XPF fluorescence assay yields an IC50 value of 400-500 nM (FIG. 2).
(§2) The synthesized compounds were tested in the in vitro fluorescence incision assay and radiolabeled DNA incision assay for potency and selectivity against ERCC1-XPF. These assays are based on forked synthetic DNA substrates and purified enzyme. The fluorescent DNA substrate is designed such that a fluorophore (Fl) is incorporated into the top DNA strand while a quencher (Q) molecule is incorporated in the bottom DNA strand and in close proximity to the Fl (FIG. 5).

[2] = tested on: cisplatin resistant ovarian cancer cell line (2008/C13*5.25); assay: colony survival with cisplatin IC50 concentration, lead compound titrated (Combination Factor); format: cell-based; conditions: 2008/C13*5.25, colony survival
Method: (§3) Cells were treated with the cisplatin IC50 concentration while the lead compound was titrated into the experiment, and colony survival assessed. The Combination Factor is the concentration of lead compound that is required to enhance cisplatin IC50 values by 2-fold.

[3] = tested on: lung cancer cell line (H460); assay: as above; format: cell-based
Method: as §3

cell culture = assay: enhancement of cisplatin efficacy in cell culture; format: cell-based
From the text: The Tosyl adduct is necessary for compound 1's ability to enhance cisplatin activity and inhibit DNA repair. Without this functionality, no activity in cell culture was observed. Derivatives synthesized in Pathways B and C, take further advantage of the Tosyl functional group, including the sulfonate linkage itself. Pathway B focuses on varying the substitution on the toluene ring. By substitution of the methyl substituent with hydrogen (3a), as well as a halogen (3c) or a propyl group (3d), steric tolerance is adjusted at this position. Alternatively, addition of a heteroatom within the aromatic ring, whether it is an oxygen (3e) or a nitrogen (3f), has little effect upon the steric environment but alters the electronic nature of this key substituent. Removal of the aromatic ring and replacement with an alkene (3b) encompasses both the steric and electronic features at this position. Pathway C exemplifies compounds with differing linkers to the tosyl moiety, namely substitution of the sulfonate as a thioether (4a), sulfoxide (4b), ester (4c), and ether (4d) or amine (4e).

ERCC1-XPF endonuclease = molecular target: T2, ERCC1-XPF endonuclease (Homo sapiens, UniProt P07992+Q92889); assay: fluorescence based DNA incision assay with purified ERCC1-XPF; format: biochemical; conditions: purified enzyme, forked fluorescent DNA substrate
T2 sequence (Q92889 1-916): T1 sequence (Q92889 1-916)
T2 sequence (P07992 1-297): T1 sequence (P07992 1-297)
From the text: Described herein is a robust fluorescence based incision assay which was used to initially screen a diverse drug library (˜2,000 compounds) in order to identify inhibitors of the ERCC1-XPF endonuclease. From the initial screen, five (5) small molecule Hits were identified that inhibited ERCC1-XPF nuclease activity with micromolar to nanomolar potency.
as §1, §2
When the DNA substrate is annealed, the Q quenches the fluorescent signal and results in low background fluorescence. […]

SMILES: N.N.[Cl][Pt][Cl] [cisplatin]
- fold resistance to cisplatin, comparing IC50 values to the parental sensitive cell line [1]: ~4 fold

SMILES: Cc1ccc(S(=O)(=O)Oc2cc(S(=O)(=O)O)cc3cc(S(=O)(=O)O)cc(N)c23)cc1 [compound 1]
- pIC50 (ERCC1-XPF): 6.30 to 6.40
- Combination Factor: concentration of lead compound required to enhance cisplatin IC50 values by 2-fold [2]: low micromolar range
- Combination Factor: concentration of lead compound required to enhance cisplatin IC50 values by 2-fold [3]: 7 to 8 µM
- pIC50 (cell culture; with cisplatin, cell line not stated, read-out: enhancing cisplatin efficacy in cell culture (IC50)): 5.40
- pIC50 (ERCC1-XPF endonuclease; read-out: IC50 (50% inhibition) in ERCC1-XPF fluorescence assay): 6.30 to 6.40

SMILES: COc1cc(S(=O)(=O)O)cc2cc(S(=O)(=O)O)cc(N)c12 [boxed portion of the molecule, reference compound]
- effect in cell culture (cell culture; data not shown): no effect
- pIC50 (ERCC1-XPF endonuclease; read-out: 50% fluorescent inhibition in the fluorescence incision assay): 5.44 to 5.49
